From publication PMC10877733, “Discovery and Characterization of VU0542270, the First Selective Inhibitor of Vascular Kir6.1/SUR2B KATP Channels” (Molecular Pharmacology, 2024)
Where two headings read alike, the source gives them in different places.

Key:
Kir6.1/SUR2B = target: T1, Kir6.1/SUR2B (Homo sapiens, UniProt O60706); assay: Thallium flux assay of Kir6.1/SUR2B in HEK293 cells; assay type: cell-based; details: for Kir6.1/SUR2B inhibition, SAR in words: modification of the right side thiophene
T1 construct: expressed in transfected cells; also transiently transfected HEK293T
Description: The pcDNA3.1-SUR2B plasmid was generously provided by Dr. Colin Nichols (Washington University). […] Stably transfected tetracycline-regulated expression human embryonic kidney-293 (T-Rex-HEK293) cells expressing both plasmids were generated by cotransfecting cells with Lipofectamine LTX followed by antibiotic selection and clonal selection using the thallium flux assay described below. […] The cell culture media contained Dulbecco's modified Eagle's medium (Gibco, 11965-092) supplied with heat-inactivated FBS (bio-techne, Minneapolis, MN […],10%), Blasticidine HCl (Gibco, A11139-03, 10 ug/mL), Penicillin-Streptomycin (Gibco, 15140-122, 2 mM), G418 Sulfate (CORNING, Corning, NY, 30-234-CR, 1 mg/mL), and Hygromycin B (Invitrogen, Carlsbad, CA, 10687-010, 250 ug/mL). For selectivity assays, HEK293T cells were cotransfected with Kir6.x and SURX with Lipofectamine LTX and incubated for 48 hours before thallium flux assays. […] [[…] et al., 2019]). […] Dye-loaded cells were washed with assay buffer and transferred to a Panoptic Kinetic Imaging Plate Reader (Wavefront Bioscience, Franklin, TN). Control and test compound treatments were for 4 minutes prior to adding 0.5 mM chloride-free thallium stimulus buffer (Ion Bioscience) to initiate thallium flux. […] Selectivity assays against other Kir channels were performed essentially as described previously ([[…] et al., 2018]; [[…] al., 2022]). […] Data were acquired using Panoptic Software, Waveguide (Wavefront Biosciences). Raw fluorescence values were imported for analysis into custom software (VICB, Vanderbilt University). Fluorescence versus time values for each well were normalized to the initial fluorescence value [F/F0]. […] CRC data were plotted in GraphPad Prism (GraphPad Software, San Diego, CA) and fitted with a four-parameter logistic model to determine IC50 values for rank-ordering hit potency.

[1] = tested on: isolated mouse ductus arteriosus vessels; assay: Pressure myography of isolated ductus arteriosus vessels; details: term gestation mouse DA
Experimental: CD-1 mice were maintained at Vanderbilt University Medical Center in accordance with protocols approved by the Institutional Animal Care and Use Committee. Timed matings were performed to produce offspring at specific stages of development. The presence of a vaginal plug was designated as embryonic day 1.
Term-gestation (embryonic day 19) fetal mouse DAs were isolated and mounted on glass pipet tips in microvessel perfusion chambers as previously reported ([Hooper et al., 2016]). Deoxygenated Krebs buffer was warmed to 37°C and circulated throughout the chamber. Vessels were pressurized in a stepwise manner to physiologic neonatal mouse mean arterial pressure (20 mmHg) and then challenged with 50 mM KCl to test reactivity. […] For dose-response studies, vessels were first dilated by circulating Krebs buffer bubbled with 95% nitrogen, 5% CO2 to mimic the hypoxic conditions of the womb. […] Following each dose, lumen diameters were allowed to plateau (approximately 20 minutes) before the next dose was added. Continuous lumen diameter measurements were recorded using a digital image capture system (IonOptix). An N of >6 vessels from at least three different litters was used for each experimental condition. Changes in lumen diameter are represented as the percent change in diameter compared with the baseline lumen diameter of vessels prior to drug exposure. […] Values represent mean ± S.D.

Kir6.2/SUR1 = target: T2, Kir6.2/SUR1 (Homo sapiens, UniProt Q09428); assay: Thallium flux assay of Kir6.2/SUR1 in HEK293 cells; assay type: cell-based; details: T-Rex-HEK293-Kir6.2/SUR1 cells
T2 construct: expressed in transfected cells; also transiently transfected HEK293T
Experimental: The pcDNA3.1-SUR2B plasmid was generously provided by Dr. Colin Nichols (Washington University). The pcDNA5/TO-Kir6.1 plasmid was synthesized by GenScript. […] For selectivity assays, HEK293T cells were cotransfected with Kir6.x and SURX with Lipofectamine LTX and incubated for 48 hours before thallium flux assays.
Stable T-Rex-HEK293-Kir6.1/SUR2B cells or transiently transfected HEK293T cells were plated in polyamine-coated, clear-bottomed, black-walled 384-well plates and were cultured (37°C/5% CO2) overnight in Dulbecco’s modified Eagle’s medium (Gibco, Carlsbad, CA, 11995-065) containing 10% FBS (2 mM Penicillin-Streptomycin). The following day, cells were washed with assay buffer (i.e., Hanks’ balanced salt solution/20 mM HEPES) and loaded for 1 hour with thallium sensor dye Brilliant Thallium (Ion Bioscience, San Marcos, TX) at room temperature. Dye-loaded cells were washed with assay buffer and transferred to a Panoptic Kinetic Imaging Plate Reader (Wavefront Bioscience, Franklin, TN). Control and test compound treatments were for 4 minutes prior to adding 0.5 mM chloride-free thallium stimulus buffer (Ion Bioscience) to initiate thallium flux.

[2] = pinacidil-activated, read-out: Kir6.1/SUR2B IC50

T1 sequence (O60706 1-1549 isoform O60706-2, species assumed): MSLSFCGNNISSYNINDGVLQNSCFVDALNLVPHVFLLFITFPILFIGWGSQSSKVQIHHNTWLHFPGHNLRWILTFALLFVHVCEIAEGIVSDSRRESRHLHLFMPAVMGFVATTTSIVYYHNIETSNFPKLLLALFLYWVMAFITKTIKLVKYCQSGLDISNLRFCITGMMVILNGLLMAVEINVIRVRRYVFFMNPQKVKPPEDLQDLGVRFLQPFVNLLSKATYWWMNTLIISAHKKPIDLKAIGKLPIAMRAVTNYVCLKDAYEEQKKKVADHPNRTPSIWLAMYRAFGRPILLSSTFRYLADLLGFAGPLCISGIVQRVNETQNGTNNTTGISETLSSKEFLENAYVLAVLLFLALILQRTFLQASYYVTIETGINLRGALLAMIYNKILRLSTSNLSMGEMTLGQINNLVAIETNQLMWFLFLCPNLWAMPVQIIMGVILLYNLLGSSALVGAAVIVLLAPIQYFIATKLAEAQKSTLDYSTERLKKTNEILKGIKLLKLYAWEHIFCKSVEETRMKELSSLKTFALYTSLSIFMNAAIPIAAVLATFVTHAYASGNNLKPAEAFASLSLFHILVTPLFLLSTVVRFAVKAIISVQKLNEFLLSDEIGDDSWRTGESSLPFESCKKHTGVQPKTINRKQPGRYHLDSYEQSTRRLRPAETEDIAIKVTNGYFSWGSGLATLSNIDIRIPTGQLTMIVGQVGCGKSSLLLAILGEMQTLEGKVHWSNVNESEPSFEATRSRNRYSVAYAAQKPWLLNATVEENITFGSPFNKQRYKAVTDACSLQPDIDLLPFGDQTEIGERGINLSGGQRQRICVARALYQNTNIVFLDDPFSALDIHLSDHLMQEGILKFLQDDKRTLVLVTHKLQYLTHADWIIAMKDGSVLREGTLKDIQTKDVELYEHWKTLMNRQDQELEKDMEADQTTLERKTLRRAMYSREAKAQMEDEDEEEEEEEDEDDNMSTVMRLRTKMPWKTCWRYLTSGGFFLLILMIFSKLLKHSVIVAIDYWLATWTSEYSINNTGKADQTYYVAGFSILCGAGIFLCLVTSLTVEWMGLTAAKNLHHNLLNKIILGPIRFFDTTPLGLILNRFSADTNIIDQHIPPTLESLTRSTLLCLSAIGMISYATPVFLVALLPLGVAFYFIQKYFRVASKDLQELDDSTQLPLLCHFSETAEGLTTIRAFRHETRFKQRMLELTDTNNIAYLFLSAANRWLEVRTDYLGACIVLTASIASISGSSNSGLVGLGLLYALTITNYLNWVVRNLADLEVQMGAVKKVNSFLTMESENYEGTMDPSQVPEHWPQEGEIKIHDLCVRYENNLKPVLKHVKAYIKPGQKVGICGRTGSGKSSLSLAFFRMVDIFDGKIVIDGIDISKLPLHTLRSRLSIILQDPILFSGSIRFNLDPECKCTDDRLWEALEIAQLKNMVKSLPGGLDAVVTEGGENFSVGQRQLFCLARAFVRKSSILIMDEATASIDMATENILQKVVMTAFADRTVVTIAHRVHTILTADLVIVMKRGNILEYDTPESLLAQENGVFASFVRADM
T1 sequence (Q15842 whole entry partner, species assumed): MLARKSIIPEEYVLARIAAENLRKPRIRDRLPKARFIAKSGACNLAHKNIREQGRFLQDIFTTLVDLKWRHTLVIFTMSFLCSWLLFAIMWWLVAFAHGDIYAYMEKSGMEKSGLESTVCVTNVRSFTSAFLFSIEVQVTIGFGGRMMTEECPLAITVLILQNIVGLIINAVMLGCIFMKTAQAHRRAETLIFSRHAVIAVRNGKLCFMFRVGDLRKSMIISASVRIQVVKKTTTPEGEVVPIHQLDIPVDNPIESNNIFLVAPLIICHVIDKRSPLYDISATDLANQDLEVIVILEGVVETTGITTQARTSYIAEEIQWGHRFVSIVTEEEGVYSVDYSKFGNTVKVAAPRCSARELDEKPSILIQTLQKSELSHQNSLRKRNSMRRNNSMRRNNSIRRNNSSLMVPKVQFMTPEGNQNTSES
T2 sequence (Q09428 whole entry, species assumed): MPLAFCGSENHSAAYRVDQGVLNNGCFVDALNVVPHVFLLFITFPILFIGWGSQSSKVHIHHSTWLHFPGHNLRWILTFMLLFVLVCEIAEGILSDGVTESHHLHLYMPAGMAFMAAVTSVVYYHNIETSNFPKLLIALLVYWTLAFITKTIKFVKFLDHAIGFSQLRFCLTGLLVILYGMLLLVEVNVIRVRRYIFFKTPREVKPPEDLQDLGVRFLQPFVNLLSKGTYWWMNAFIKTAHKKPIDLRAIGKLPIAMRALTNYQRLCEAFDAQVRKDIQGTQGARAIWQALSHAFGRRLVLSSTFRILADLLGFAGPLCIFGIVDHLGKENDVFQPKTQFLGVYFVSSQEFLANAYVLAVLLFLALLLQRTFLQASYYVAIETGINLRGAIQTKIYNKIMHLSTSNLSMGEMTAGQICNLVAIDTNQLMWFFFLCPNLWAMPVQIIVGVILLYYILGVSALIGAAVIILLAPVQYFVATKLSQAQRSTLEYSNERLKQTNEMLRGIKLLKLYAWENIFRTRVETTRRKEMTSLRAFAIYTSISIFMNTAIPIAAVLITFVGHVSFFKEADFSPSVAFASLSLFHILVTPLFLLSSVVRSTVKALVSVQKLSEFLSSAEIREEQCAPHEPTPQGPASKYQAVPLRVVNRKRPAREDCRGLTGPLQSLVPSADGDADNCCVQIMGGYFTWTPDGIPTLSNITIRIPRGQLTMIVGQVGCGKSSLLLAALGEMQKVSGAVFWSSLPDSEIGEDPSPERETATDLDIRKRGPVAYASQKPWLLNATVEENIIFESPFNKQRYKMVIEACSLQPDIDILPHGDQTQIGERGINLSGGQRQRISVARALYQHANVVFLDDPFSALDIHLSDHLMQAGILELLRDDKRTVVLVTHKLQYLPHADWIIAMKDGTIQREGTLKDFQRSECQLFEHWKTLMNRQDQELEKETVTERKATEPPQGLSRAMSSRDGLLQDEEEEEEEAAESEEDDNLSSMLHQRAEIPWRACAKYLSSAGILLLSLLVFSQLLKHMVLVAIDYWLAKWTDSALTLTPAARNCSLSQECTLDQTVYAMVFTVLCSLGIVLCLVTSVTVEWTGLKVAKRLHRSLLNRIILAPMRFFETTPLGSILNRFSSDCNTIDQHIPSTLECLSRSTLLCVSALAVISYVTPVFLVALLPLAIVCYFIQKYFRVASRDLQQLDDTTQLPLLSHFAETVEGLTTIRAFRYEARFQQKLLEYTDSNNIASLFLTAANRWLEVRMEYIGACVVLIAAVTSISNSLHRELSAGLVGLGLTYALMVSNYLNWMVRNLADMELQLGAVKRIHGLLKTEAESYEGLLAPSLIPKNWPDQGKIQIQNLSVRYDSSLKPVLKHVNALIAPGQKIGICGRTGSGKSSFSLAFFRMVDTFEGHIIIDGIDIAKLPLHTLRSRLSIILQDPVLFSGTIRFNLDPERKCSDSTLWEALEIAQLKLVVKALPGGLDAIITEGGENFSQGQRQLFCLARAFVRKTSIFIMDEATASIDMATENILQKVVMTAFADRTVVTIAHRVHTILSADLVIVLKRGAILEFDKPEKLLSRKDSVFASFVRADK
T2 sequence (Q14654 whole entry partner, species assumed): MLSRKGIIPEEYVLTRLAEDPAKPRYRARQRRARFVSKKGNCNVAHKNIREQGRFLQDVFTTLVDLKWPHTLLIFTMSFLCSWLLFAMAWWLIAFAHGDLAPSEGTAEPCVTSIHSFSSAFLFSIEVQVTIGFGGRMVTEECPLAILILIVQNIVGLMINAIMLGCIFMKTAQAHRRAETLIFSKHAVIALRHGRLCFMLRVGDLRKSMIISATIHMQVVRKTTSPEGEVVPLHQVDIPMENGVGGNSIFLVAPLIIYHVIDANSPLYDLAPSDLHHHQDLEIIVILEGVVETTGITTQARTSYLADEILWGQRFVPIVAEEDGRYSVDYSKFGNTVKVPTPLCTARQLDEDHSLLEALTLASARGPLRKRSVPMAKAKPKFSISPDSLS

Compound | IC50 (Kir6.1/SUR2B; [2]) [nM] | also measured
Cc1nc(-c2ccccc2F)sc1CNC(=O)Nc1cccs1 [compound 5] | 545 | –
Cc1nc(-c2cccs2)sc1CNC(=O)Nc1cccnc1 [compound 6] | 1620 | Kir6.1/SUR2B inhibition, SAR in words (Kir6.1/SUR2B): very weak
Cc1nc(-c2cccs2)sc1CNC(=O)Nc1ccncc1 [compound 7] | 12600 | Kir6.1/SUR2B inhibition, SAR in words (Kir6.1/SUR2B): very weak
O=C(NCc1cc(-c2ccncc2)n(C2CCCC2)n1)Nc1cccs1 [compound 8] | 527 | –
Cn1nc(CNC(=O)Nc2cccs2)cc1-c1ccncc1 [compound 9] | 6130 | –
COc1ccc(Cl)cc1C(=O)NCCc1ccc(S(=O)(=O)NC(=O)NC2CCCCC2)cc1 [glibenclamide, reference compound] | – | IC50 (Kir6.1/SUR2B; transfected HEK-293 cells, pinacidil activation, read-out: Kir6.1/SUR2B IC50 (Fig. 4C)): 115 nM; ductus arteriosus vessel constriction ([1]; increasing concentrations, compound alone): constricted in a concentration-dependent manner; ductus arteriosus vessel constriction in the presence of pinacidil ([1]; with 10 µM pinacidil): substantially blunted vasoconstrictive effects
CC(N/C(=N\C#N)Nc1ccncc1)C(C)(C)C (centres unmarked) [pinacidil, reference compound] | – | effect on Kir6.2/SUR1 thallium flux (opening) (Kir6.2/SUR1): no effect

Further lines, with some results ahead:

IC50 (Kir6.1/SUR2B; [2]) [nM] | Compound | also measured
857 | Cn1nc(CNC(=O)Nc2cccc(C(F)(F)F)c2)cc1-c1ccncc1 [compound 10] | –
987 | O=C(NCC1(c2ccc(F)cc2)CC1)Nc1cccs1 [compound 11] | –
780 | Cn1nc(CNC(=O)Nc2cccs2)c2ccccc2c1=O [compound 12] | –
